Where a SMILES comes first, the peptide text is derived from it. Bridges are numbered along the chain shown (N, C = ends).
Key:
[1] = Acute diuretic activity of Tolvaptan and peptides of Formula (II) and (IV) in Wistar rats (Example 6); format: in vivo
Experimental: In this study, Male Wistar Rats (˜8 weeks; Envigo; Somerset, NJ) were fasted overnight (18 hours; free access to water) followed by treatment with saline at 20 ml/Kg via oral gavage to have a uniform hydration of all the animals. The animals were then treated with various concentrations of test articles administered subcutaneously (n=4) (Table 5). Control dosed vehicle group (9% tween 80; Fisher Scientific, Waltham MA) administered subcutaneously was included and the resulting data was subtracted from individual test article data. After the dose, animals were placed in the metabolic cage (Tecniplast; Province of Varese, Italy) and urine was collected and measured at 2, 4 and 8 hours after the dosing of test articles. Urine volumes were divided by the body weight (pre-dose) times 100 to express in ml/100 g body weight. […] However, at any ratio, a tolvaptan dose of about 0.3 mg/Kg (i.e., 0.3+0.05 mg/Kg) administered in rats (allometrically equivalent to about 2-7 mg/human depending on persons weight) is an ideal dose that when combined with the composition of the present disclosure provides greater than 50% of the sum of individual diuretic effect administered alone. Low dose of 0.3 mg/Kg of subcutaneous tolvaptan is considered to be 13-fold below the effective safe human dose thus providing additional advantage to patients with liver disease. This can increase mean arterial blood pressure (MAP) which is a V1a effect caused by composition of the present disclosure while maintaining significant (at least 50% of the sum of individual diuretic effect administered alone) of both.

[2] = cited from earlier work
[3] = Therapeutic index (NOAEL/NOEL): paleness, lethargy, ataxia observation in Sprague-Dawley rats (Example 7); format: in vivo
Method in brief: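 Male Sprague-Dawley rats, 8–10 weeks, under isoflurane (n=3 or 6), dosed IV or SC with test articles. Paleness judged by ear colour beside untreated controls; lethargy and ataxia scored by observation. Index expressed as NOAEL/NOEL ratio.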

V1a receptor = biological target: T1, V1a receptor (Homo sapiens, UniProt P37288); assay: V1a Human Vasopressin GPCR Cell Based Agonist Calcium Flux Assay
T1 construct: host or cells: CHO cells

[4] = Acute diuretic activity of Terlipressin, Tolvaptan and combinations in Wistar rats (Example 5); format: in vivo
Experimental: The animals were then treated with Terlipressin (Bachem, Torrance CA), Tolvaptan (Fisher Scientific, Waltham, MA) and combination of the two compounds at various concentrations administered subcutaneously (n=4). Test articles were Terlipressin 0.05 mg/Kg and 0.15 mg/Kg, Tolvaptan 0.3 mg/Kg, and 1.0 mg/Kg, Terlipressin 0.05 mg/Kg+Tolvaptan 0.3 mg/Kg, Terlipressin 0.05 mg/Kg+Tolvaptan 1.0 mg/Kg, Terlipressin 0.15 mg/Kg+Tolvaptan 0.3 mg/Kg, and Terlipressin 0.15 mg/Kg+1.0 mg/Kg. Furosemide (Fisher Scientific, Waltham, MA) was used as positive control and dosed at 20 mg/kg via oral gavage. Control dosed vehicle group (9% tween 80; Fisher Scientific, Waltham MA) administered subcutaneously was included and the resulting data was subtracted from individual test article data. After the dose, animals were placed in the metabolic cage (Tecniplast; Province of Varese, Italy) and urine was collected and measured at 2, 4 and 8 hours after the dosing of test articles. Urine volumes were divided by the body weight (pre-dose) times 100 to express in ml/100 g body weight.

[5] = Telemetric evaluation of portal vein pressure in rats with bile duct ligation (Example 9); format: in vivo, Sprague Dawley rats; details: BDL rats n = 4, 41 μg/kg intravenous bolus
Experimental: For this study, animals (Sprague Dawley rats (240-300 g at surgery from Charles River Laboratory) were maintained at room temperatures (20 to 22° C.) with 14-hour light, 10-hour dark cycle when not performing study procedures. The mean portal vein pressure (MPVP) reduction efficacy of a peptide of Formula ([…] [SEQ ID NO. 13]; Mpa and C are disulfide bonded; represented as TA-1) was compared to terlipressin in telemetered male with Bile Duct Ligation (BDL) and Sham surgery. On Study Day 1, rats received bile duct ligation surgery and telemetry implantation. The BDL group (n=4) had two stands of silk suture tightened and tied to occlude the bile duct; the sham group (n=3) had sutures loosely tied around the bile duct so that no occlusion occurred. After recovery from surgery, all rats had their portal vein pressure monitored continuously via telemetry until Day 22. […] Terlipressin was administered through intravenous bolus into a lateral tail vein on Day 20 and 21. All animals were dosed under manual restraint. Systolic portal vein pressure and diastolic portal vein pressure were measured to calculate the Mean Portal Vein Pressure ([…] was analyzed by averaging 5 minute intervals for the first 4 hours after dose and thereafter averaging 1 hour intervals after dose until 24 hours. […] Telemetric evaluation of […] [SEQ ID NO. 13] and Terlipressin on portal vein pressure in rats with bile duct ligation. The animal room temperatures were set to maintain 20 to 22° C. A 14-hour light, 10-hour dark cycle was implemented unless interrupted by study procedures. Efficacy was assessed by evaluating mean portal vein pressure (MPVP) at different concentrations of Formula 1 and Terlipressin in telemetered male Sprague Dawley rats (240-300 g at surgery from Charles River Laboratory) with Bile Duct Ligation (BDL) and Sham surgery. On Study Day 1, rats received bile duct ligation surgery and telemetry implantation. The BDL group (n=4) had two stands of silk suture tightened and tied to occlude the bile duct; the sham group (n=3) had sutures loosely tied around the bile duct so that no occlusion occurred. After recovery from surgery, all rats had their portal vein pressure monitored continuously via telemetry until Day 22. […] Formula 1 was administered at different concentrations subcutaneously on Day 15 to 19, and Day 23; Terlipressin was administered through intravenous bolus into a lateral tail vein on Day 20 and 21. All animals were dosed under manual restraint. Systolic portal vein pressure and diastolic portal vein pressure were measured to calculate the Mean Portal Vein Pressure ([…] was analyzed by averaging 5 minute intervals for the first 4 hours after dose and thereafter averaging 1 hour intervals after dose until 24 hours.

V2 = V2 (Homo sapiens, UniProt P30518); details: cited from earlier work
[6] = peptide alone 0.015 mg/kg subcutaneous
[7] = peptide alone 0.05 mg/kg subcutaneous

T1 sequence (P37288 whole entry): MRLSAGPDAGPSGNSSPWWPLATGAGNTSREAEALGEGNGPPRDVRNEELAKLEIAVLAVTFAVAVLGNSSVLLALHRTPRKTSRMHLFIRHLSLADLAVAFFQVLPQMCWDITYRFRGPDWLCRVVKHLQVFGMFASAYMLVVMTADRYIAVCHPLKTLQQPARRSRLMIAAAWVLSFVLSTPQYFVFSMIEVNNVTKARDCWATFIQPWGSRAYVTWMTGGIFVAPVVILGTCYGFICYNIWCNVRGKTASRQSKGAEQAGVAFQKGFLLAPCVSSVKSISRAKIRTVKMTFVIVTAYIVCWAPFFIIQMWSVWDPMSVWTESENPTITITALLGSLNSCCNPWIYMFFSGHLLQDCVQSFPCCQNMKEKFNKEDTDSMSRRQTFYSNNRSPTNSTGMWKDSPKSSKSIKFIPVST
Chain of V2 (P30518 whole entry): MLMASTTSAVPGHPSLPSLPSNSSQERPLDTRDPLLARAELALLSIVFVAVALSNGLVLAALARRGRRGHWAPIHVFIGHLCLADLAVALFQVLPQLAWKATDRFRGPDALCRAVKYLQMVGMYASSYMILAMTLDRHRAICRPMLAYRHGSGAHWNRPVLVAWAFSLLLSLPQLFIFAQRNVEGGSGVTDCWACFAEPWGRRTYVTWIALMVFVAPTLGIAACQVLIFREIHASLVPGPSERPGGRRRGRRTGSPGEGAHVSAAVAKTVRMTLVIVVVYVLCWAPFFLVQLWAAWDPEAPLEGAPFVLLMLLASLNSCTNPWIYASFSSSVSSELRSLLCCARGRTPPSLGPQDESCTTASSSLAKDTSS

Which “Average 8 hours cumulative Urine Volume: mL per 100 gram body weight (SEM; n = 4) minus Tween 80 vehicle group” value [1, 6] does the source give for “Mpa-Tyr-Phe-Gln-Asn-Cys-Pro-Lys(X)a-Gly-NH2; (X)a = (Gly)5 [SEQ ID NO. 33]” here?
The value was 1.11 (0.11) mL per 100 gram body weight.

And the “Average 8 hours cumulative Urine Volume: mL per 100 gram body weight (SEM; n = 4) minus Tween 80 vehicle group” value [1, 7]?
Its value is 1.32 (0.09) mL per 100 gram body weight.

What about the “Average 8 hours cumulative Urine Volume: mL per 100 gram body weight (SEM; n = 4) minus Tween 80 vehicle group” value ([1]; peptide alone 0.15 mg/kg subcutaneous) of the same compound?
Its value is 1.85 (0.20) mL per 100 gram body weight.

What does the source list for `NC(=O)CC[C@@H]1NC(=O)[C@H](Cc2ccccc2)NC(=O)[C@H](Cc2ccc(O)cc2)NC(=O)[C@@H](N)CSSC[C@@H](C(=O)N2CCC[C@H]2C(=O)N[C@@H](CCCN=C(N)N)C(=O)NCC(N)=O)NC(=O)[C@H](CC(N)=O)NC1=O` [Vasopressin]?
excreted through the kidney ([2]; in vivo): 65%; metabolized by liver and kidney vasopressinases ([2]; in vivo): 35%; protein binding ([2]; in vivo): not protein-bound; volume of distribution ([2]; plasma): 0.14 L/kg

With `NCCCC[C@H](NC(=O)[C@@H]1CCCN1C(=O)[C@@H]1CSSCCC(=O)N[C@@H](Cc2ccc(O)cc2)C(=O)N[C@@H](Cc2ccccc2)C(=O)N[C@@H](CCC(N)=O)C(=O)N[C@@H](CC(N)=O)C(=O)N1)C(=O)NCC(N)=O` [SEQ ID NO. 32] as the compound, how does the “Paleness (Duration, hrs; SD)” value ([3]; S.C., at the Marked adverse effect dose) read?
The value was “(4.79 ± 0.08) hrs”.

And the “Paleness (Duration, hrs; SD)” value ([3]; S.C., at the Mild adverse effect dose)?
Its value is “(4.45 ± 0.26) hrs”.

And the “Paleness (Duration, hrs; SD)” value ([3]; S.C., at the NOAEL dose)?
The value was “(3.54 ± 0.11) hrs”.

What about the “Paleness (Duration, hrs; SD)” value ([3]; S.C., at the NOEL dose) of the same compound?
Its value is “None observed”.

What about the “Highest dose with no-observed effect level or paleness (NOEL)” value ([3]; S.C., rat) of the same compound?
Its value is 0.0005 mg/kg.

And the “NOAEL/NOEL (therapeutic index)” value ([3]; S.C., rat)?
The value was 20.

What about the NOAEL ([3]; in vivo, sc, S.C., rat, read-out: Highest dose with no-observed adverse effect level without lethargy (NOAEL)) of the same compound?
The NOAEL was 0.01 mg/kg.

And the “Marked adverse effect (Lowest dose first showed Ataxia)” value ([3]; rat, in vivo, sc)?
Its value is 0.1 mg/kg.

What about the “Mild adverse effect (Lowest dose first showed Lethargy)” value ([3]; rat, in vivo, sc) of the same compound?
Its value is 0.03 mg/kg.

And the “Average 8 hours cumulative Urine Volume: mL per 100 gram body weight (SEM; n = 4) minus Tween 80 vehicle group” value ([1]; peptide alone 0.005 mg/kg subcutaneous)?
The value was 0.80 (0.50) mL per 100 gram body weight.

And the “Average 8 hours cumulative Urine Volume: mL per 100 gram body weight (SEM; n = 4) minus Tween 80 vehicle group” value [1, 6]?
Its value is 0.86 (0.28) mL per 100 gram body weight.

What about the “Average 8 hours cumulative Urine Volume: mL per 100 gram body weight (SEM; n = 4) minus Tween 80 vehicle group” value [1, 7] of the same compound?
Its value is 0.74 (0.55) mL per 100 gram body weight.

With `NCCCC[C@H](NC(=O)[C@@H]1CCCN1C(=O)[C@@H]1CSSC[C@H](N)C(=O)N[C@@H](Cc2ccc(O)cc2)C(=O)N[C@@H](Cc2ccccc2)C(=O)N[C@@H](CCC(N)=O)C(=O)N[C@@H](CC(N)=O)C(=O)N1)C(=O)NCC(N)=O` [Lysine vasopressin (LVP), Lysine vasopressin, reference compound] as the compound, how does the plasma half-life ([2]; in vivo) read?
The plasma half-life was 0.833 h.

What about the EC50 (V1a receptor; Table 3, CHO cells expressing human V1 receptor, read-out: Estimated V1a EC50 (nM), n = 2) of the same compound?
The EC50 was 1.65 nM.

And the Emax (V1a receptor; Table 3, read-out: V1a Highest agonist effect (% of AVP), n = 2)?
The Emax was 92.1%.

What about the “V1a Highest agonist effect (% of AVP); n = 2” value (V1a receptor; Table 4) of the same compound?
Its value is 92.1 % of AVP.

Which “Average mL of Urine per 100 gram body weight 8 hours cumulative (n = 4) minus Vehicle group (Tween 80); (SEM)” value ([4]; Furosemide 20 mg/kg oral gavage (positive control)) does the source give for `NS(=O)(=O)c1cc(C(=O)O)c(NCc2ccco2)cc1Cl` [Furosemide] here?
Its value is 1.73 (0.22) mL per 100 gram body weight.

With `NC(=O)CC[C@@H]1NC(=O)[C@H](Cc2ccccc2)NC(=O)[C@H](Cc2ccc(O)cc2)NC(=O)CCSSC[C@@H](C(=O)N2CCC[C@H]2C(=O)N[C@H](CCCN=C(N)N)C(=O)NCC(N)=O)NC(=O)[C@H](CC(N)=O)NC1=O` [desmopressin] as the compound, how does the half-life ([2]; in vivo) read?
The half-life was 2 h.

With `NCCCC[C@H](NC(=O)[C@@H]1CCCN1C(=O)[C@@H]1CSSC[C@H](NC(=O)CNC(=O)CNC(=O)CN)C(=O)N[C@@H](Cc2ccc(O)cc2)C(=O)N[C@@H](Cc2ccccc2)C(=O)N[C@@H](CCC(N)=O)C(=O)N[C@@H](CC(N)=O)C(=O)N1)C(=O)NCC(N)=O` [Terlipressin, reference compound] (H-GGGCYFQNCPKG-NH2; disulfide 4-9) as the compound, how does the “Percent decrease (%) in Mean Portal Vein Pressure (MPVP) from BDL baseline prior to treatment” value (“Percent decrease (%)” below) ([5]; Time 1 hr) read?
The value was −23%.

What about the “Percent decrease (%)” value ([5]; Time 4 hr) of the same compound?
The value was 11.3%.

What about the “Percent decrease (%)” value ([5]; Time 7 hr) of the same compound?
Its value is 10.8%.

What about the “Percent decrease (%)” value ([5]; Time 20 hr) of the same compound?
The value was 7.3%.

What about the “Paleness (Duration, hrs; SD)” value ([3]; I.V., at the Marked adverse effect dose) of the same compound?
The value was “(3.56 ± 0.06) hrs”.

And the “Paleness (Duration, hrs; SD)” value ([3]; I.V., at the Mild adverse effect dose)?
Its value is “(2.82 ± 0.03) hrs”.

And the “Paleness (Duration, hrs; SD)” value ([3]; I.V., at the NOAEL dose)?
Its value is “(1.3 ± 0.05) hrs”.

What about the “Paleness (Duration, hrs; SD)” value ([3]; I.V., at the NOEL dose) of the same compound?
The value was “None observed”.

What about the “Highest dose with no-observed effect level or paleness (NOEL)” value ([3]; I.V., rat) of the same compound?
The value was 0.005 mg/kg.

And the NOAEL at 24 h ([3]; male, Sprague-Dawley, in vivo, iv, I.V., rat, read-out: Highest dose with no-observed adverse effect level without lethargy (NOAEL))?
Its NOAEL at 24 h is 0.05 mg/kg.

What about the “Marked adverse effect (Lowest dose first showed Ataxia)” value ([3]; rat, in vivo, iv) of the same compound?
Its value is 1.5 mg/kg.

And the “Mild adverse effect (Lowest dose first showed Lethargy)” value ([3]; rat, in vivo, iv)?
The value was 0.15 mg/kg.

And the “V2 or anti-diuretic activity” value (V2)?
Its value is 3%.

And the “Average mL of Urine per 100 gram body weight 8 hours cumulative (n = 4) minus Vehicle group (Tween 80); (SEM)” value ([4]; Terlipressin 0.05 mg/Kg subcutaneous)?
The value was 0.70 (0.17) mL per 100 gram body weight.

And the “Average mL of Urine per 100 gram body weight 8 hours cumulative (n = 4) minus Vehicle group (Tween 80); (SEM)” value ([4]; Terlipressin 0.15 mg/Kg subcutaneous)?
Its value is 1.32 (0.23) mL per 100 gram body weight.

Which results are given for `Cc1ccccc1C(=O)Nc1ccc(C(=O)N2CCCC(O)c3cc(Cl)ccc32)c(C)c1` (stereo not shown) [Tolvaptan]?
Average 8 hours cumulative Urine Volume: mL per 100 gram body weight (SEM; n = 4) minus Tween 80 vehicle group ([1]; Tolvaptan 0.3 mg/kg subcutaneous): 0.65 (0.16) mL per 100 gram body weight; Average mL of Urine per 100 gram body weight 8 hours cumulative (n = 4) minus Vehicle group (Tween 80); (SEM) ([4]; Tolvaptan 0.3 mg/Kg subcutaneous): 0.65 (0.16) mL per 100 gram body weight; Average mL of Urine per 100 gram body weight 8 hours cumulative (n = 4) minus Vehicle group (Tween 80); (SEM) ([4]; Tolvaptan 1.0 mg/Kg subcutaneous): 7.29 (0.46) mL per 100 gram body weight

Source: patent US12410211B2, “V1A receptor partial agonist and method of use” (PharmaIN Corporation, priority 2020, dated 2025)
